Measurements: ChEMBL document CHEMBL5113460, “Discovery of dual inhibitors of topoisomerase I and Cyclooxygenase-2 for colon cancer therapy” (Eur J Med Chem, 2022)
In brackets after ≈: the same amount, converted by molar mass. Activity calls are given as the source filed them. The calls are words filed in the database; no cut-off is given here.

Experiments:
[1] = Cmax in Sprague-Dawley rat at 30 mg/kg, po and measured upto 12 hrs by LC-MS analysis; assay type: ADME, organism-based; design: time < 12 hrs, dose 30 mg/kg, route po; details: in vivo
[2] = Tmax in Sprague-Dawley rat at 30 mg/kg, po and measured upto 12 hrs by LC-MS analysis; assay type: ADME, organism-based; details: in vivo
[3] = AUC (0-t) in Sprague-Dawley rat at 30 mg/kg, po and measured upto 12 hrs by LC-MS analysis; assay type: ADME, organism-based; design: dose 30 mg/kg, time < 12 hrs, route po; details: in vivo
[4] = system: RKO; experiment: Induction of cell cycle arrest in human RKO cells assessed as ratio of G1/G0 phase at 2 to 8 uM incubated for 24 hrs by flow cytometry (Rvb= 37.57%); assay type: functional; details: dose 2-8 µM
[5] = system: RKO; experiment: Induction of apoptosis in human RKO cells assessed as early apoptotic cells at 6 uM incubated for 24 hr by Annexin-V-FITC/PI staining based flow cytometry (Rvb= 7.27%); assay type: functional
[6] = system: HT-29; experiment: Induction of apoptosis in human HT-29 cells assessed as viable cells at 2 uM incubated for 24 hr by Annexin-V-FITC/PI staining based flow cytometry (Rvb= 83.5%); assay type: functional; details: read-out: Activity
[7] = system: HT-29; experiment: Induction of cell cycle arrest in human HT-29 cells assessed as ratio of G1/G0 phase at 2 to 8 uM incubated for 24 hrs by flow cytometry (Rvb= 55.20%); assay type: functional; details: dose 2-8 µM
[8] = system: HT-29; experiment: Induction of apoptosis in human HT-29 cells assessed as viable cells at 8 uM incubated for 24 hr by Annexin-V-FITC/PI staining based flow cytometry (Rvb= 83.5%); assay type: functional; details: read-out: Activity
[9] = system: RKO; experiment: Induction of apoptosis in human RKO cells assessed as increase in cytochrome c protein level at 3 to 9 uM incubated for 24 hrs by western blot analysis; assay type: functional, cell-based; details: dose 3-9 µM
[10] = system: HT-29; experiment: Antiproliferative activity against human HT-29 cells assessed as inhibition of cell colonies at 0.25 to 1 uM incubated for 7 days by crystal violet staining based microscopic analysis; assay type: functional; details: dose 0.25-1 µM, time 7.0 day
[11] = system: HT-29; experiment: Antitumor activity against human HT-29 cells xenografted in BALB/c mouse assessed as inhibition of tumor cell proliferation at 30 mg/kg, ip bid for 14 days by Ki67 staining based immunohistochemical analysis (Rvb= 16.61+/-1.05%); assay type: functional; design: scale not given: the % may be the effect or the level left; details: time 14 day
[12] = Half life in Sprague-Dawley rat at 30 mg/kg, po and measured upto 12 hrs by LC-MS analysis; assay type: ADME, organism-based; details: in vivo
[13] = target: T1, DNA topoisomerase 1 (Homo sapiens) (UniProt P11387); experiment: Inhibition of topoisomerase 1 (unknown origin) assessed as relaxation of supercoiled plasmid pBR322 DNA at 10 uM incubated for 45 mins by ethidium bromide staining based agarose gel electrophoresis
T1 sequence (whole entry): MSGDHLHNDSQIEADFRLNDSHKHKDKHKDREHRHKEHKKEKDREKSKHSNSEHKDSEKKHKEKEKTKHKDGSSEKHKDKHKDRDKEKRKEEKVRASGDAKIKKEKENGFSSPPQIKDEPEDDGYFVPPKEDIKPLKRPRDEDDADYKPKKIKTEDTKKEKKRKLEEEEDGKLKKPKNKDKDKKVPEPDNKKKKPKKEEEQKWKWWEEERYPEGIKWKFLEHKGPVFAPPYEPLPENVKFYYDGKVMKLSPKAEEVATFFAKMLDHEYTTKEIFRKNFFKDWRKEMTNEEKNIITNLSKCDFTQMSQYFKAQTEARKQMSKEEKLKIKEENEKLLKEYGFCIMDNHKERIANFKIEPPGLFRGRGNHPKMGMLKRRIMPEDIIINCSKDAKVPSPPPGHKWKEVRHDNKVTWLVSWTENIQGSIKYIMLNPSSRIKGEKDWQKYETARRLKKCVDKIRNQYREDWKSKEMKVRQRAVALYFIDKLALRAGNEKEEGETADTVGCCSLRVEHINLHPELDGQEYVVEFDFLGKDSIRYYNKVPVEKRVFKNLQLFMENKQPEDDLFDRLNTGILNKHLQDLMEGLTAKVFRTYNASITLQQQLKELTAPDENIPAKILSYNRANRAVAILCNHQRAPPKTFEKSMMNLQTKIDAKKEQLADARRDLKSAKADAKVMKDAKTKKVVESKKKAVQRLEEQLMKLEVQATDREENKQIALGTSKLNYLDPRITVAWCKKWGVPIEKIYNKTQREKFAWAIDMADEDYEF

[14] = system: RKO; experiment: Induction of apoptosis in human RKO cells assessed as reduction in mitochondrial membrane potential at 3 to 9 uM by TMRE staining based flow cytometry; assay type: functional, cell-based; details: dose 3-9 µM
[15] = system: RKO; experiment: Induction of apoptosis in human RKO cells assessed as necrotic cells at 3 uM incubated for 24 hr by Annexin-V-FITC/PI staining based flow cytometry (Rvb= 0.30%); assay type: functional
[16] = system: RKO; experiment: Induction of apoptosis in human RKO cells assessed as viable cells at 9 uM incubated for 24 hr by Annexin-V-FITC/PI staining based flow cytometry (Rvb= 87.9%); assay type: functional; details: read-out: Activity
[17] = system: RKO; experiment: Induction of apoptosis in human RKO cells assessed as increase in Bax protein level at 3 to 9 uM incubated for 24 hrs by western blot analysis; assay type: functional, cell-based; details: dose 3-9 µM
[18] = system: RKO; experiment: Antiproliferative activity against human RKO cells assessed as inhibition of cell colonies at 0.37 to 1.5 uM incubated for 7 days by crystal violet staining based microscopic analysis; assay type: functional; details: dose 0.37-1.5 µM, time 7.0 day
[19] = system: RKO; experiment: Induction of apoptosis in human RKO cells assessed as viable cells at 3 uM incubated for 24 hr by Annexin-V-FITC/PI staining based flow cytometry (Rvb= 87.9%); assay type: functional; details: read-out: Activity
[20] = Water solubility of compound by HPLC analysis; assay type: physicochemical
[21] = system: HT-29; experiment: Induction of apoptosis in human HT-29 cells assessed as late apoptotic cells at 2 uM incubated for 24 hr by Annexin-V-FITC/PI staining based flow cytometry (Rvb=8.60%); assay type: functional
[22] = system: RKO; experiment: Induction of apoptosis in human RKO cells assessed as increase in intracellular ROS level at 3 to 9 uM for 24 hrs by DCFH-DA staining-based flow cytometric analysis; assay type: functional, cell-based; details: dose 3-9 µM
[23] = system: HT-29; experiment: Antitumor activity against human HT-29 cells xenografted in BALB/c mouse assessed as reduction of tumor weight at 30 mg/kg, ip bid and measured after 14 days; assay type: functional, organism-based; details: time 14.0 day
[24] = system: HT-29; experiment: Antitumor activity against human HT-29 cells xenografted in BALB/c mouse assessed as reduction of tumor weight at 15 mg/kg, ip bid and measured after 14 days; assay type: functional, organism-based; details: time 14.0 day
[25] = system: RKO; experiment: Induction of apoptosis in human RKO cells assessed as viable cells at 6 uM incubated for 24 hr by Annexin-V-FITC/PI staining based flow cytometry (Rvb= 87.9%); assay type: functional; details: read-out: Activity
[26] = system: RKO; experiment: Induction of apoptosis in human RKO cells assessed as late apoptotic cells at 3 uM incubated for 24 hr by Annexin-V-FITC/PI staining based flow cytometry (Rvb= 4.49%); assay type: functional
[27] = system: SW480; experiment: Antitumor activity against human SW480 cells assessed as inhibition of cell proliferation incubated for 72 hrs by MTT assay; assay type: functional, cell-based; details: SW480, 72 h
[28] = system: HT-29; experiment: Induction of apoptosis in human HT-29 cells assessed as late apoptotic cells at 8 uM incubated for 24 hr by Annexin-V-FITC/PI staining based flow cytometry (Rvb=8.60%); assay type: functional

Cmax [1]: 1600 ng/mL
Tmax [2]: 0.28 h
AUC(0-t) at 12 h [3]: 5410 ng·h/mL
half-life [12]: 4.27 h
inhibition [13]: 69%
solubility [20]: 32.3 µg/mL (≈ 76.8 µM)
IC50 [27]: 7.36 µM
SMILES: Cc1c(Cl)cccc1Nc1ccccc1C(=O)Nc1ccc(N2CCNCC2)cc1
Activity [4]: 76.99%
Activity [5]: 10.5%
viability at 2 µM [6]: 82.6%
Activity [7]: 65.17%
viability at 8 µM [8]: 68.9%
Activity [9]: Active
Activity [10]: Active
Activity [11]: 3.27%
Activity [14]: Active
Activity [15]: 0.46%
viability at 9 µM [16]: 65.6%
Activity [17]: Active
Activity [18]: Active
viability at 3 µM [19]: 88%
Activity [21]: 11%
Activity [22]: Active
Activity [23]: Active
Activity [24]: Active
viability at 6 µM [25]: 81.9%
Activity [26]: 4.66%
Activity [28]: 26.1%
